Laboratory results: patent publication US10350206B2, “Benzyl substituted indazoles as BUB1 inhibitors” (Bayer Pharma Aktiengesellschaft, priority 2014, dated 2019)
Structures can show the parent of a compound that is named as a salt. Where two headings read alike, the source gives them in different places.

Columns and labels:
[1] = Stability in buffer at various pH values (HPLC detection); format: physicochemical; settings: 37° C., remaining prodrug; for Stability pH 4: % Test Compound after 4 h [F(t = 4 h) × 100/F(t = 0 h)]: pH 4 buffer; for Stability pH 7.4: % Test Compound after 4 h [F(t = 4 h) × 100/F(t = 0 h)]: pH 7.4 buffer
Experimental: Stability in Buffer at Various pH Values (HPLC Detection)
0.3 mg of the test compound was solved in 0.1 ml dimethylsulfoxide and 0.4 ml acetonitrile. For complete dissolution the HPLC vial with the sample solution was sonified for about 20 seconds. Then 1.0 ml of the respective buffer solution was added and the sample was again treated in the ultrasonic bath.
• pH 4.0: Fluka buffer, Order No. 33643 (11.76 g citric acid, 2.57 g sodium chloride and 2.72 g sodium hydroxide) • pH 7.4: 90 g of sodium chloride, 13.61 g of potassium dihydrogen phosphate and 83.35 g of 1 M sodium hydroxide solution were made up to 1 L with Millipore water and then diluted 1:10. • 10 μl portions of the sample solution were analysed by HPLC at different times (0 h, 1 h, 2h, 4h and 24h) at 37° C. The peak areas in percentage were used for quantification. HPLC Method: • Agilent 1100 with DAD (G1315B), binary pump (G1312A), autosampler (G1329A), column oven (G1316A), thermostat (G1330B); column: Kromasil 100 C18, 250 mm×4 mm, 5 μm; column temperature: 37° C.; eluent A: water+5 ml of perchloric acid/litre, eluent B: acetonitrile. Gradient: • 0 min 98% A, 2% B→0-3.0 min 85% A, 15% B→3.0-8.0 min 50% A, 50% B→8.0-16.0 min 50% A, 50% B→16.0-20.0 min 10% A, 90% B→20.0-21.0 10% A, 90% B→21.0-24.0 min 98% A, 2% B→24.0-25.0 min 98% A, 2% B; flow rate: 1.5 ml/min; UV detection: 210 nm.
The ratios of the peak area (F) at different times in relation to the peak area at the starting point are shown in Table 3 for representative examples: […]

[2] = biological target: T1, catalytic domain of human Bub1 (amino acids 704-1085) (Homo sapiens, UniProt O43683); test: Equilibrium probe competition assay (TR-FRET kinase binding assay); settings: read-out: Assay 5 IC50
T1 construct: catalytic domain of human Bub1 (amino acids 704-1085); His6 (N); made in house; host or cells: Hi5 insect cells
Experimental: The half-life of prodrugs (Table 3) poses a challenge for the verification of their biological activity. The Bub1 enzymatic activity assay (as per Biological Assay 1.0 infra) requires a minimum reaction time of 60 minutes in order to be able to assess the inhibitory activity of the compounds. During this time typically 20% to 60% of the prodrugs have been already converted to their corresponding drugs at the pH of 7.5 at which the assay is performed. Ideally one would perform the biological assay at a pH at which the prodrug is stable (e.g. pH 4). […] Alternatively, an assay requiring shorter incubation times would better estimate the binding affinities of the prodrugs. […] Extrapolating the stability data from Tables 3 and 4, one would expect at this time point most of the compound present in the test solution to be the prodrug.
FIGS. 1 and 2 combine the results from Biological Assay 5 with those from Biological Assay 6. The binding affinities over time of drug and prodrug pairs are shown as pIC50 together with the prodrug stability, and the pIC50 to be expected if only the drug present in the sample was responsible for the activity in the assay. Extrapolating the pIC50 from these graphs to time 0 (at which 100% of prodrug is present in the sample), the actual affinity of the drug and prodrug can be inferred. Secondly, looking at the differences between expected and real pIC50 an estimate can be made about the contribution of the prodrug to the observed activity.
Biological Assay 5.0: Equilibrium Probe Competition Assay:
Bub1 binding affinity of compounds described in the present invention were quantified using a time-resolved fluorescence energy transfer (TR-FRET) kinase binding assay which measures displacement of the synthetic fluorescent probe 5-[({2-[2-({2-[1-(4-ethoxy-2,6-difluorobenzyl)-1H-indazol-3-yl]-4-(pyridin-4-ylamino)pyrimidin-5-yl}oxy)ethoxy]ethyl}carbamothioyl)amino]-2-(6-hydroxy-3-oxo-3H-xanthen-9-yl)benzoic acid (6-5-1) by the (recombinant) catalytic domain of human Bub1 (amino acids 704-1085). The enzyme was expressed in Hi5 insect cells with N-terminal 6×His/AviTag® sequences, purified by affinity- (Ni-NTA) and size exclusion chromatography and site-specific biotinylated ex-vivo using a commercially available kit (Avidity).
In a typical assay 11 different concentrations of each compound (0.1 nM, 0.33 nM, 1.1 nM, 3.8 nM, 13 nM, 44 nM, 0.15 μM, 0.51 μM, 1.7 μM, 5.9 μM and 20 μM) were tested in duplicate within the same microtiter plate. To this end, 100-fold concentrated compound solutions (in DMSO) were made by serial dilution (1:3.4) of freshly prepared 2 mM stocks in a clear low volume 384-well source microtiter plate (Greiner Bio-One, Frickenhausen, Germany), from which 50 nl of compounds were transferred into a black low volume test microtiter plate from the same supplier. Subsequently 2 μL of a solution containing biotinylated Bub1 (the final concentration of Bub1 was adjusted depending on the activity of the enzyme lot in order to be within the linear dynamic range of the assay: typically ˜[…] were used) and 1 nM Streptavidin Terbium Cryptate (Cisbio, No. 610SATLB) in aqueous assay buffer [50 mM Tris/HCl pH 7.5, 200 mM potassium chloride (KCl), 1.0 mM dithiothreitol (DTT), 0.1 mM sodium ortho-vanadate, 1% (v/v) glycerol, 0.01% (w/v) bovine serum albumine (BSA), 0.005% (v/v) Triton X-100 (Sigma), were added to the compounds in the test plate and the mixture was incubated for 15 min at 22° C. to allow pre-equilibration of the putative enzyme-inhibitor complexes before the start of the probe competition reaction, which was initiated by the addition of 3 μL 1.67-fold concentrated solution (in assay buffer) of 6-5-1 (final concentration: 1.5 nM). The resulting mixture (5 μL final volume) was incubated at 22° C. during 0, 15, 30, 60, 120, 240 and 1440 min. […]

| SMILES | Stability pH 4: % Test Compound after 4 h [F(t = 4 h) × 100/F(t = 0 h)] [1] [%] | Stability pH 7.4: % Test Compound after 4 h [F(t = 4 h) × 100/F(t = 0 h)] [1] [%] | IC50 ([2]; Time 15 min) [nM] | IC50 ([2]; Time 30 min) [nM] | IC50 ([2]; Time 60 min) [nM] | IC50 ([2]; Time 90 min) [nM] | IC50 ([2]; Time 120 min) [nM] | IC50 ([2]; Time 240 min) [nM] | IC50 ([2]; Time 1440 min) [nM] |
| --- | --- | --- | --- | --- | --- | --- | --- | --- | --- |
| COc1cnc(-c2nn(Cc3c(F)cc(OCCOC(=O)[C@H](C)NC(=O)[C@H](N)CCCCN)cc3F)c3ccccc23)nc1Nc1ccnc(F)c1 [Example 4-1-3, 2-{3,5-difluoro-4-[(3-{4-[(2-fluoropyridin-4-yl)amino]-5-methoxypyrimidin-2-yl}-1H-indazol-1-yl)methyl]phenoxy}ethyl D-lysyl-L-alaninate, salt with trifluoroacetic acid] | 100 | 0 |  |  |  |  |  |  |  |
| COc1cnc(-c2nn(Cc3c(F)cc(OCCOC(=O)[C@H](C)NC(=O)[C@@H](N)CCCCN)cc3F)c3ccccc23)nc1Nc1ccnc(C)c1 [Example 4-1-1, 2-{3,5-difluoro-4-[(3-{5-methoxy-4-[(2-methylpyridin-4-yl)amino]pyrimidin-2-yl}-1 H-indazol-1-yl)methyl]phenoxy}ethyl L-lysyl-L-alaninate, salt with trifluoroacetic acid] | 100 | 4 | 17 | 10 | 12 | 10 | 7.2 | 5.8 | 2.7 |
| COc1cnc(-c2nn(Cc3c(F)cc(OCCOC(=O)[C@H](C)NC(=O)[C@@H](N)CCCCN)cc3F)c3ccccc23)nc1Nc1ccnc(F)c1 [Example 4-1-4, 2-{3,5-difluoro-4-[(3-{4-[(2-fluoropyridin-4-yl)amino]-5-methoxypyrimidin-2-yl}-1H-indazol-1-yl)methyl]phenoxy}ethyl L-lysyl-L-alaninate, salt with trifluoroacetic acid] | 100 | 9 |  |  |  |  |  |  |  |
| COc1cnc(-c2nn(Cc3c(F)cc(OCCOC(=O)[C@H](C)NC(=O)[C@@H](N)CCCCN)cc3F)c3ccccc23)nc1Nc1ccncc1 [Example 6-2-1, 2-[3,5-difluoro-4-({3-[5-methoxy-4-(pyridin-4-ylamino)pyrimidin-2-yl]-1 H-indazol-1-yl}methyl)phenoxy]ethyl L-lysyl-L-alaninate, salt with trifluoroacetic acid, reference compound] | 100 | 3 |  |  |  |  |  |  |  |
| COc1cnccc1Nc1nc(-c2nn(Cc3c(F)cc(OCCOC(=O)[C@H](C)NC(=O)[C@@H](N)CCCCN)cc3F)c3ccccc23)ncc1OC [Example 4-1-2, 2-{3,5-difluoro-4-[(3-{5-methoxy-4-[(3-methoxypyridin-4-yl)amino]pyrimidin-2-yl}-1H-indazol-1-yl)methyl]phenoxy}ethyl L-lysyl-L-alaninate, salt with trifluoroacetic acid] | 100 | 5 | 2.7 | 2.3 | 2.2 | 1.3 | 1 | 0.69 | 0.36 |
